Source: US8367671B2, “Pyrazolo[3.4-B]pyrazine compounds as p38 modulators and methods of use as anti-inflamatory agents” (Amgen Inc., priority 2008, dated 2013)

Legend:
[1] = test system: TNF-α induced IL-8 in 50% human whole blood; assay: Inhibition of TNF-α induced IL-8 in 50% human whole blood; format: cell-based; conditions: 50% human whole blood activated with 1 nM TNF-α, secreted IL-8, 16-18 hours; read-out: WB TNF/IL8 IC50
Method: Inhibition of TNF-α Induced IL-8 in 50% Human Whole Blood
Test compounds were evaluated in vitro for the ability to inhibit the production of secreted IL-8 by whole blood activated with TNF-α. Fresh human whole blood was obtained from healthy, non-medicated volunteers in sodium heparin tubes.
Compound Dilution—Assay Procedure
Test compounds are serially diluted 1:3 in DMSO and then diluted 1:250 into R10 (RPMI 1640, 10% human serum AB, 1× pen/strep/glutamine) to the 4× working concentration to be used in the assay. 100 ul heparinized whole blood is plated into wells of 96 well flat bottom plates. 50 ul of either 4× compound or DMSO control (Final DMSO concentration is 0.1%) are added to the appropriate wells. Plates are incubated for 1 hour at 37 degrees Celsius. 50 ul of 4× TNF-α (4 nM TNF-α, for a final concentration of 1 nM) or control (media alone) is added to the appropriate wells (Total volume=200 ul). Plates are incubated overnight (16-18 hours). 100 ul of supernatant is collected and stored in 96-well round bottom polypropylene plates at −80 degrees Celsius or assayed immediately for IL-8.
Cytokines are measured on antibody (Ab) sandwich ECL based 96-well detection plates. 20 ul of supernatant are added to plate and plate is sealed and shaken at RT for 1 hour. 130 ul of detection Ab cocktail is added and plates are sealed and shaken for 1 hour in the dark at RT. Plates are read on MSD Sector HTS instrument. Data are analyzed and IC50 values generated using Activity Base and Xl-fit programs.

human p38α = human p38α (Homo sapiens, UniProt Q16539); assay: Purified and activated recombinant human p38α HTRF kinase assay; format: biochemical; conditions: 1 nM p38α, 50 μM ATP, 100 nM GST-ATF2-Avitag, 1 hour at RT; read-out: p38a IC50
Method: Purified and Activated Recombinant Human p38α Aassay
Kinase Reaction Buffer: Kinase reaction buffer for p38α HTRF assays consists of 50 mM Tris-pH 7.5, 5 mM MgCl2, 0.1 mg/mL BSA, 100 μM Na3VO4 and 0.5 mM DTT.
HTRF Detection Buffer: HTRF detection buffer contains 100 mM HEPES-pH 7.5, 100 mM NaCl, 0.1% BSA, 0.05% Tween-20, and 10 mM EDTA.
Serial Dilution of Compounds: Compounds were dissolved in 100% DMSO and serially diluted (3 fold, 10 point) in a polypropylene 96-well microtiter plate (drug plate). The final starting concentration of compounds in the p38a enzymatic assays was 1 μM. Columns 6 and 12 (HI controls and LO controls respectively) in the drug plate were reserved as controls and contained only DMSO. Kinase Reaction: The p38α kinase reactions were carried out in a polypropylene 96-well black round bottom assay plate in total volume of 30 μL kinase reaction buffer. Appropriate concentration of purified and activated enzyme (recombinant human) was mixed with indicated concentration of ATP and 100 nM GST-ATF2-Avitag, in the presence or absence (HI control) of Compound. See table below for actual concentrations. In the absence of substrate, the background was measured as LO control. The reaction was allowed to incubate for 1 hour at RT. Assay Reagent Concentrations: The final reagent concentrations were 1 nM p38α and 50 μM ATP. The Km for ATP of the enzyme was 103 μM, giving a ratio of ATP concentration to Km of 0.49. […] After 60 minutes incubation at room temperature, the assay plate was read in a Discovery Plate Reader. The wells were excited with coherent 320 nm light and the ratio of delayed ([…] post excitation) emissions at […] (native europium fluorescence) and 665 nm (europium fluorescence transferred to allophycocyanin—an index of substrate phosphorylation) was determined (Park et al, 1999). Data Analysis: The proportion of substrate phosphorylated in the kinase reaction in the presence of compound compared with that phosphorylated in the presence of DMSO vehicle alone (HI control) was calculated using the formula: % control (POC)=(compound−average LO)/(average HI−average LO)*100. Data (consisting of POC and inhibitor concentration in μM) was fitted to a 4-parameter equation (y=A+((B−A)/(1+((x/C)^D))), where A is the minimum y (POC) value, B is the maximum y (POC), C is the x (compound concentration) at the point of inflection and D is the slope factor, using a Levenburg-Marquardt non-linear regression algorithm.
The inhibition constant (Ki) of the inhibitor was estimated from the IC50 (compound concentration at the point of inflection C) using the Cheng-Prussof equation: Ki=IC50/(1+S/Km), where S is the ATP substrate concentration, and Km is the Michaelis constant for ATP as determined experimentally. All results were expressed as the mean±the standard error of the mean. Data acquisition and non-linear regression algorithms were performed using Activity Base v5.2 and XL-fit software v4.1 respectively. All data was archived using Activity Base v5.2 software.

Chain of human p38α (Q16539 whole entry): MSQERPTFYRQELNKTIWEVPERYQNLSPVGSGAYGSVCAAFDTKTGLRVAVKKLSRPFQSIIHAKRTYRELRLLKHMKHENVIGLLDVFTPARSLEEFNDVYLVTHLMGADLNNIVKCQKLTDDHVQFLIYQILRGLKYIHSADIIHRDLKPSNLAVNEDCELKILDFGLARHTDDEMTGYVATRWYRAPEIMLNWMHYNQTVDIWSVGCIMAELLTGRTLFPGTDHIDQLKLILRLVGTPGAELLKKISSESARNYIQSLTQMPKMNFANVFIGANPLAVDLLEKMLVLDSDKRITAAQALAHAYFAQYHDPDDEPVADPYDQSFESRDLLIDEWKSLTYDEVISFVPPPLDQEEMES

Row | Structure (SMILES) | IC50 [1] [nM] | IC50 (human p38α) [nM]
1 | Cc1ccc(C(=O)NC2CC2)cc1-c1nc2cnn(-c3c(F)cccc3F)c2n(C)c1=O [Example 3, N-cyclopropyl-3-(1-(2,6-difluorophenyl)-7-methyl-6-oxo-6,7-dihydro-1H-pyrazolo[3,4-b]pyrazin-5-yl)-4-methylbenzamide] | 7.3 | 3.3
2 | Cc1ccc(C(N)=O)cc1-c1nc2cnn(-c3c(F)cccc3F)c2n(C)c1=O [Example 4, 3-(1-(2,6-difluorophenyl)-7-methyl-6-oxo-6,7-dihydro-1H-pyrazolo[3,4-b]pyrazin-5-yl)-4-methylbenzamide] | 41 | 8.5
3 | CCn1c(=O)c(-c2cc(C(=O)NC3CC3)cc(F)c2C)nc2cnn(-c3ccc(F)cc3F)c21 [Example 9, N-cyclopropyl-3-(1-(2,4-difluorophenyl)-7-ethyl-6-oxo-6,7-dihydro-1H-pyrazolo[3,4-b]pyrazin-5-yl)-5-fluoro-4-methylbenzamide] | 8.4 | 5
4 | Cc1ccc(C(=O)Nc2ccon2)cc1-c1nc2cnn(-c3c(F)cccc3F)c2n(C)c1=O [Example 10, 3-(1-(2,6-difluorophenyl)-7-methyl-6-oxo-6,7-dihydro-1H-pyrazolo[3,4-b]pyrazin-5-yl)-N-3-isoxazolyl-4-methylbenzamide] | 3.7 | 10
5 | CCn1c(=O)c(-c2cc(C(=O)NC3CC3)cc(F)c2C)nc2cnn(-c3c(F)cccc3F)c21 [Example 11, N-cyclopropyl-3-(1-(2,6-difluorophenyl)-7-ethyl-6-oxo-6,7-dihydro-1H-pyrazolo[3,4-b]pyrazin-5-yl)-5-fluoro-4-methylbenzamide] | 3 | 2.3
6 | CCn1c(=O)c(-c2cc(C(N)=O)cc(F)c2C)nc2cnn(-c3c(F)cccc3F)c21 [Example 12, 3-(1-(2,6-difluorophenyl)-7-ethyl-6-oxo-6,7-dihydro-1H-pyrazolo[3,4-b]pyrazin-5-yl)-5-fluoro-4-methylbenzamide] | 23 | 22
7 | CCn1c(=O)c(-c2cc(C(=O)Nc3ccon3)ccc2C)nc2cnn(-c3c(F)cccc3F)c21 [Example 13, 3-(1-(2,6-difluorophenyl)-7-ethyl-6-oxo-6,7-dihydro-1H-pyrazolo[3,4-b]pyrazin-5-yl)-N-3-isoxazolyl-4-methylbenzamide] | 1.2 | 0.7

The remaining compounds from weak to strong by IC50 [1], led by results:

Row | IC50 [1] [nM] | IC50 (human p38α) [nM] | Structure (SMILES)
8 | 25 | 34 | Cc1c(F)cc(C(=O)NC2CC2)cc1-c1nc2cnn(-c3ccc(F)cc3F)c2n(C)c1=O [Example 7, N-cyclopropyl-3-(1-(2,4-difluorophenyl)-7-methyl-6-oxo-6,7-dihydro-1H-pyrazolo[3,4-b]pyrazin-5-yl)-5-fluoro-4-methylbenzamide]
9 | 13 | 4.6 | Cc1c(F)cc(C(=O)Nc2ccon2)cc1-c1nc2cnn(-c3ccc(F)cc3F)c2n(C)c1=O [Example 8, 3-(1-(2,4-difluorophenyl)-7-methyl-6-oxo-6,7-dihydro-1H-pyrazolo[3,4-b]pyrazin-5-yl)-5-fluoro-N-3-isoxazolyl-4-methylbenzamide]
10 | 10.7 | 1.8 | Cc1c(F)cc(C(=O)NC2CC2)cc1-c1nc2cnn(-c3c(F)cccc3F)c2n(C)c1=O [Example 1, N-Cyclopropyl-3-(1-(2,6-difluorophenyl)-7-methyl-6-oxo-6,7-dihydro-1H-pyrazolo[4,3-b]pyrazin-5-yl)-5-fluoro-4-methylbenzamide]
11 | 6.1 | 2.5 | CCn1c(=O)c(-c2cc(C(=O)Nc3ccon3)cc(F)c2C)nc2cnn(-c3ccc(F)cc3F)c21 [Example 2, 3-(1-(2,4-Difluorophenyl)-7-ethyl-6-oxo-6,7-dihydro-1H-pyrazolo[4,3-b]pyrazin-5-yl)-5-fluoro-N-(isoxazol-3-yl)-4-methylbenzamide]
12 | 5.8 | 1.4 | CCn1c(=O)c(-c2cc(C(=O)NC3CC3)ccc2C)nc2cnn(-c3c(F)cccc3F)c21 [Example 5, N-cyclopropyl-3-(1-(2,6-difluorophenyl)-7-ethyl-6-oxo-6,7-dihydro-1H-pyrazolo[3,4-b]pyrazin-5-yl)-4-methylbenzamide]
13 | 3.2 | 1.2 | Cc1c(F)cc(C(=O)Nc2ccon2)cc1-c1nc2cnn(-c3c(F)cccc3F)c2n(C)c1=O [Example 6, 3-(1-(2,6-difluorophenyl)-7-methyl-6-oxo-6,7-dihydro-1H-pyrazolo[3,4-b]pyrazin-5-yl)-5-fluoro-N-3-isoxazolyl-4-methylbenzamide]
